Laboratory results as given in PubChem BioAssay AID248 (DTP/NCI, 2004).
Where “and” joins values, the source holds several entries; their conditions need not be identical. Equal entries are not always repeated. Toxic doses and inconclusive results are not listed. No stated cut-off is given here; in the data, active means T/C of 150% or more; inactive means T/C below 125%.

System: L1210 leukemia ip in BDF1 mice, survival T/C
Assay: NCI In Vivo Anticancer Drug Screen. Data for tumor model L1210 Leukemia (intraperitoneal) in B6D2F1 (BDF1) mice
Conditions: endpoint: mean survival time, higher = longer survival
Method in brief: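 Read-out is survival time, reported as the treated-group measurement over the vehicle-control measurement.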

[1] = dose: 50.0 mg/kg/injection, schedule: Q04DX003 (ip), vehicle: Klucel (hydroxypropylcellulose) (HPC)
[2] = dose: 100.0 mg/kg/injection, schedule: Q01DX009 (ip), vehicle: Klucel (hydroxypropylcellulose) (HPC)
[3] = dose: 100.0 mg/kg/injection, schedule: Q04DX003 (ip), vehicle: Klucel (hydroxypropylcellulose) (HPC)
[4] = dose: 200.0 mg/kg/injection, schedule: Q04DX003 (ip), vehicle: Klucel (hydroxypropylcellulose) (HPC)
[5] = dose: 100.0 mg/kg/injection, schedule: Q01DX001 (ip), vehicle: carboxymethylcellulose (CMC)
[6] = dose: 400.0 mg/kg/injection, schedule: Q01DX001 (ip), vehicle: carboxymethylcellulose (CMC)
[7] = dose: 100.0 mg/kg/injection, schedule: Q01DX001 (ip), vehicle: saline
[8] = dose: 200.0 mg/kg/injection, schedule: Q01DX001 (ip), vehicle: saline
[9] = dose: 400.0 mg/kg/injection, schedule: Q01DX001 (ip), vehicle: saline
[10] = dose: 100.0 mg/kg/injection, schedule: Q01DX009 (ip), vehicle: saline with Tween-80
[11] = dose: 200.0 mg/kg/injection, schedule: Q01DX009 (ip), vehicle: saline with Tween-80

Measured: T/C

O=C(O)c1ccc(NC(C(=O)c2ccccc2)c2ccccc2)cc1 (configuration not stated)
inactive: dose: 50.0 mg/kg/injection, schedule: Q01DX001 (ip), vehicle: Klucel (hydroxypropylcellulose) (HPC) 96 % of control | dose: 100.0 mg/kg/injection, schedule: Q01DX001 (ip), vehicle: Klucel (hydroxypropylcellulose) (HPC) 107 % of control | dose: 200.0 mg/kg/injection, schedule: Q01DX001 (ip), vehicle: Klucel (hydroxypropylcellulose) (HPC) 94 % of control

O=c1cc[nH]c2ccccc12
inactive: dose: 100.0 mg/kg/injection, schedule: Q01DX001 (ip), vehicle: saline with Tween-80 96 % of control | dose: 200.0 mg/kg/injection, schedule: Q01DX001 (ip), vehicle: saline with Tween-80 97 % of control | dose: 400.0 mg/kg/injection, schedule: Q01DX001 (ip), vehicle: saline with Tween-80 103 % of control

[Cl][Sn]([Cl])([c]1ccccc1)[c]1ccccc1
inactive: dose: 12.5 mg/kg/injection, schedule: Q01DX001 (ip), vehicle: saline 108 % of control | dose: 25.0 mg/kg/injection, schedule: Q01DX001 (ip), vehicle: saline 96 % of control | dose: 50.0 mg/kg/injection, schedule: Q01DX001 (ip), vehicle: saline 100 % of control

O=P(CCl)(NC12CC3CC(CC(C3)C1)C2)N1CC1 (configuration not stated)
inactive: [1] 100 % of control | [2] 97 % of control | [3] 95 % of control | dose: 200.0 mg/kg/injection, schedule: Q01DX009 (ip), vehicle: Klucel (hydroxypropylcellulose) (HPC) 95 % of control | [4] 103 % of control | dose: 400.0 mg/kg/injection, schedule: Q01DX009 (ip), vehicle: Klucel (hydroxypropylcellulose) (HPC) 103 % of control | dose: 400.0 mg/kg/injection, schedule: Q04DX003 (ip), vehicle: Klucel (hydroxypropylcellulose) (HPC) 97 % of control

CC(=O)Nc1c(C)cc(C)c(F)c1Br
inactive: dose: 37.5 mg/kg/injection, schedule: Q01DX001 (ip), vehicle: Klucel (hydroxypropylcellulose) (HPC) 97 % of control | dose: 75.0 mg/kg/injection, schedule: Q01DX001 (ip), vehicle: Klucel (hydroxypropylcellulose) (HPC) 95 % of control | dose: 150.0 mg/kg/injection, schedule: Q01DX001 (ip), vehicle: Klucel (hydroxypropylcellulose) (HPC) 95 % of control

CN(C)C(=S)Oc1ccccn1
inactive: dose: 25.0 mg/kg/injection, schedule: Q04DX003 (ip), vehicle: Klucel (hydroxypropylcellulose) (HPC) 106 % of control | [1] 104 % of control | [3] 102 % of control and 105 % of control

CC1=C[S+](c2ccccc2)c2cccc3cc4ccccc4c1c23 (configuration not stated)
inactive: dose: 2.5 mg/kg/injection, schedule: Q01DX009 (ip), vehicle: saline with Tween-80 119 % of control

CCCCCCC(C(=O)OCC)P(=O)(OCC)OCC (configuration not stated)
inactive: dose: 75.0 mg/kg/injection, schedule: Q01DX001 (ip), vehicle: saline 101 % of control | dose: 150.0 mg/kg/injection, schedule: Q01DX001 (ip), vehicle: saline 94 % of control | dose: 300.0 mg/kg/injection, schedule: Q01DX001 (ip), vehicle: saline 100 % of control

C1=Nc2ccccc2/C1=C/c1cccs1
inactive: [5] 97 % of control | dose: 100.0 mg/kg/injection, schedule: Q01DX009 (ip), vehicle: carboxymethylcellulose (CMC) 96 % of control and 108 % of control | dose: 100.0 mg/kg/injection, schedule: Q04DX002 (ip), vehicle: carboxymethylcellulose (CMC) 100 % of control and 102 % of control | dose: 100.0 mg/kg/injection, schedule: Q04DX003 (ip), vehicle: carboxymethylcellulose (CMC) 95 % of control | dose: 200.0 mg/kg/injection, schedule: Q01DX001 (ip), vehicle: carboxymethylcellulose (CMC) 98 % of control | dose: 200.0 mg/kg/injection, schedule: Q01DX009 (ip), vehicle: carboxymethylcellulose (CMC) 96 % of control and 105 % of control | dose: 200.0 mg/kg/injection, schedule: Q04DX002 (ip), vehicle: carboxymethylcellulose (CMC) 104 % of control and 110 % of control | dose: 200.0 mg/kg/injection, schedule: Q04DX003 (ip), vehicle: carboxymethylcellulose (CMC) 89 % of control | [6] 93 % of control | dose: 400.0 mg/kg/injection, schedule: Q01DX009 (ip), vehicle: carboxymethylcellulose (CMC) 89 % of control and 91 % of control | dose: 400.0 mg/kg/injection, schedule: Q04DX002 (ip), vehicle: carboxymethylcellulose (CMC) 103 % of control and 104 % of control

CC(=O)c1cccc([N+](=O)[O-])c1O
inactive: [7] 95 % of control | [8] 94 % of control | [9] 91 % of control

CC(C)(C)c1ccc(OCCO)cc1
inactive: dose: 25.0 mg/kg/injection, schedule: Q01DX009 (ip), vehicle: other 102 % of control | dose: 50.0 mg/kg/injection, schedule: Q01DX009 (ip), vehicle: other 96 % of control | dose: 100.0 mg/kg/injection, schedule: Q01DX009 (ip), vehicle: other 95 % of control

N/C(=N\Nc1ccccc1)N[N+](=O)[O-]
inactive: dose: 175.0 mg/kg/injection, schedule: Q01DX001 (ip), vehicle: acetone 100 % of control | dose: 265.0 mg/kg/injection, schedule: Q01DX001 (ip), vehicle: acetone 96 % of control | dose: 400.0 mg/kg/injection, schedule: Q01DX001 (ip), vehicle: acetone 94 % of control | dose: 600.0 mg/kg/injection, schedule: Q01DX001 (ip), vehicle: acetone 104 % of control

CC(=O)OCc1ccc(Cl)cc1
inactive: dose: 100.0 mg/kg/injection, schedule: Q01DX009 (ip), vehicle: saline 96 % of control | dose: 200.0 mg/kg/injection, schedule: Q01DX009 (ip), vehicle: saline 102 % of control

Cc1nc(N)c(Cl)nc1C
inactive: dose: 50.0 mg/kg/injection, schedule: Q01DX009 (ip), vehicle: saline with Tween-80 96 % of control | [10] 100 % of control and 104 % of control | dose: 100.0 mg/kg/injection, schedule: Q04DX003 (ip), vehicle: saline with Tween-80 102 % of control | [11] 97 % of control and 98 % of control | dose: 200.0 mg/kg/injection, schedule: Q04DX003 (ip), vehicle: saline with Tween-80 96 % of control | dose: 400.0 mg/kg/injection, schedule: Q04DX003 (ip), vehicle: saline with Tween-80 88 % of control

CCOC(=O)NC(CC)NC(=O)OCC
inactive: [7] 101 % of control | [8] 103 % of control | [9] 97 % of control

CCCCCC#CC(=O)OCC
inactive: [10] 100 % of control | [11] 89 % of control

O=C(Nc1cccc(O)c1)Oc1ccccc1
inactive: [10] 98 % of control | [11] 90 % of control | dose: 400.0 mg/kg/injection, schedule: Q01DX009 (ip), vehicle: saline with Tween-80 89 % of control

O=C1C=CC(=O)C2C3C=CC(C3)C12 (configuration not stated)
inactive: dose: 25.0 mg/kg/injection, schedule: Q01DX009 (ip), vehicle: Klucel (hydroxypropylcellulose) (HPC) 102 % of control | dose: 50.0 mg/kg/injection, schedule: Q01DX009 (ip), vehicle: Klucel (hydroxypropylcellulose) (HPC) 98 % of control | [2] 94 % of control and 102 % of control

Cc1c(C(C)(C)c2ccccc2)n(C)c2ccc(C(C)(C)c3ccccc3)cc12
inactive: dose: 50.0 mg/kg/injection, schedule: Q01DX001 (ip), vehicle: other 91 % of control | dose: 100.0 mg/kg/injection, schedule: Q01DX001 (ip), vehicle: other 91 % of control | dose: 200.0 mg/kg/injection, schedule: Q01DX001 (ip), vehicle: other 96 % of control | dose: 400.0 mg/kg/injection, schedule: Q01DX001 (ip), vehicle: other 93 % of control

CC(=O)Nc1ccc(S(=O)(=O)N2CC2)cc1
inactive: dose: 50.0 mg/kg/injection, schedule: Q01DX005 (ip), vehicle: saline 102 % of control | [1] 91 % of control | dose: 100.0 mg/kg/injection, schedule: Q01DX005 (ip), vehicle: saline 96 % of control | [3] 102 % of control | dose: 200.0 mg/kg/injection, schedule: Q01DX005 (ip), vehicle: saline 102 % of control | [4] 95 % of control

[Cl][Pt+2][Cl].[NH-]CCN1CC1
inactive: dose: 50.0 mg/kg/injection, schedule: Q04DX003 (ip), vehicle: saline 122 % of control | dose: 100.0 mg/kg/injection, schedule: Q04DX003 (ip), vehicle: saline 122 % of control

N#CC1(Nc2ccc(-c3ccc(NC4(C#N)CCCC4)cc3)cc2)CCCC1
inactive: dose: 50.0 mg/kg/injection, schedule: Q01DX001 (ip), vehicle: carboxymethylcellulose (CMC) 90 % of control | [5] 95 % of control | [6] 88 % of control

COc1ccccc1OCCOCCN(C)C1CC(C)CCC1C(C)C (configuration not stated)
inactive: [3] 98 % of control
